The values that follow come from ChEMBL document CHEMBL4304826, “Lead identification and characterization of hTrkA type 2 inhibitors” (Bioorg Med Chem Lett, 2019).

Data set [1] is described as follows: in vivo. As to conditions: Beagle, dog, plasma, iv, 0.2 mg/kg.
Data set [2] can be described thus: in vivo. To be noted: Beagle, dog, plasma, po, 3 mg/kg.
A short description of data set [3]: in vitro. As to conditions: dog, liver microsomes. In general terms: Liver microsomes are a subcellular fraction often used to study metabolism.
The nature of data set [4]: in vivo. To be noted: Beagle, dog, plasma, po, 3 mg/kg. This is another data set of the same source.
Data set [5] can be described thus: in vivo. As to conditions: Beagle, dog, plasma, iv, 0.2 mg/kg. This is another data set of the same source.
Data set [6] is described as follows: in vivo. To be noted: Beagle, dog, plasma, iv, 0.2 mg/kg. The source holds these as a separate data set.
The nature of data set [7]: in vitro. As to conditions: dog, MDCK.
Data set [8] can be described thus: in vivo. As to conditions: Beagle, dog, plasma, iv, 0.2 mg/kg. This is another data set of the same source.
Data set [9] is described as follows: in vivo. As to conditions: Beagle, dog, plasma, iv, 0.2 mg/kg. This is another data set of the same source.
Data set [10] is described as follows: in vivo. As to conditions: Beagle, dog, plasma, po, 3 mg/kg. The source holds these as a separate data set.
The nature of data set [11]: in vitro. To be noted: dog, MDCK. The source holds these as a separate data set.
The nature of data set [12]: in vivo. As to conditions: Beagle, dog, plasma, po, 3 mg/kg. The source holds these as a separate data set.
Data set [13] in a line: in vivo. To be noted: Beagle, dog, plasma, po, 3 mg/kg. This is another data set of the same source.
Data set [14] is described as follows: in vivo. To be noted: Beagle, dog, po, 3 mg/kg.

For orientation: AUC(0-t) means exposure summed from dosing to a finite time, without extrapolation to infinity. Higher therefore signals high exposure. Broadly, the AUC(0-inf) is the area under the concentration-time curve extrapolated to infinity. Low readings indicate low exposure, high ones high exposure. Broadly, the half-life is the time in which the quantity being followed falls by half. As a reminder, the clearance is a measure of how efficiently the substance is removed, as volume per time. The low end stands for inefficient removal, the high end for efficient removal. In general, Papp A→B refers to the apparent permeability from the apical to the basolateral side of a cell layer. By Vd is commonly meant the apparent volume that relates the amount in the body to the concentration in plasma or blood. Low values mean confinement near the circulation, high ones extensive tissue distribution. Usually Tmax stands for the time at which the peak concentration occurs. By Papp B→A is commonly meant the apparent permeability from the basolateral to the apical side of a cell layer. One may read the Cmax as the peak of the concentration-time curve. A word on the bioavailability: it is dose-corrected exposure relative to a reference, in per cent. A higher bioavailability goes with good availability. In the case of `Cc1ccc2nc(CSc3nnc(NC(=O)Nc4cccc(C(F)(F)F)c4)s3)cc(=O)n2c1`, the results for the AUC(0-t) in the data set “in vivo [1]” and in the data set “in vivo [13]” were 748 ng·h/mL and 1780 ng·h/mL, respectively. Also, the AUC(0-inf) came to 1790 ng·h/mL in “in vivo [2]” and 755 ng·h/mL in the data set “in vivo [9]”. In addition, the half-life in the data set “in vitro [3]” is 9 min; in the data set “in vivo [4]” it was 39 min; in “in vivo [6]”, 37.8 min. This compound also came in with a clearance in the data set “in vivo [5]” of 4.43 mL/min/kg. This compound also gave a Papp A→B in “in vitro [7]” of 0.14 ×10⁻⁶ cm/s. In “in vivo [8]”, this compound displayed a Vd of 0.164 L/kg. For the same compound, in the data set “in vivo [10]”, the Tmax is 45 min. Moreover, in the data set “in vitro [11]”, the Papp B→A stood at 3.73 ×10⁻⁶ cm/s. The compound also registered a Cmax in “in vivo [12]” of 1140 ng/mL. The compound also came in with a bioavailability in “in vivo [14]” of 16%.
